Assay results published in patent publication US20200085918A1, “COMPOSITIONS AND METHODS FOR TREATMENT OF UREMIC CARDIOMYOPATHY” (priority 2016, published 2020).

Key:
ERK1/2 [1] = assay: ERK1/2 activation (phosphor-ERK/total ERK) in primary cardiac fibroblasts; assay type: cell-based, mouse
Method: (§1) Western Blotting Analysis: Cardiac (left ventricle) tissue samples and cardiac fibroblast homogenates were prepared and analyzed as was previously described for collagen-1 and other proteins. Assessment of protein carbonylation and activation of c-Src and ERK1/2 was performed as was described previously. Multiple exposures were analyzed to assure that the signals were within the linear range of the film. The signal density was determined using NIH ImageJ 1.48v software. Polyclonal antibody against type I collagen was from Southern Biotech (Birmingham, Ala.). Polyclonal anti-Src [pY418] phosphospecific antibody was from Invitrogen (Camarillo, Calif.). Monoclonal antibody against total c-Src was from Santa Cruz (Santa Cruz, Calif.). 2,4-dinitrophenylhydrazine (DNPH) and antibody against 2,4-dinitrophenyl (DNP) hydrazone derivatives were from Sigma-Aldrich.
(§2) Experimental design for in vitro experiment: C57BL/6 mouse primary cardiac fibroblast cells (purchased from Cell Biologics, Inc., Chicago, Ill.) were resuspended in complete fibroblast medium with supplements and 10% FBS (Cell Biologics, Inc.). The cultures were maintained at 37° C. in a 5% CO2 incubator and the medium was changed after 48 h and every 2-3 days thereafter. Cardiac fibroblast cells (passage 3-4) were grown until over confluent and were serum-starved (with 1% FBS) overnight before being used for the experiments. […]

collagen-1 [2] = assay: Collagen-1 expression in left ventricle homogenates (western blot), CoPP and pNaKtide study; assay type: in vivo, mouse; details: LV homogenates; PNx + CoPP 5 mg/kg BW ip; p<0.01 vs PNx
Method: as §1

ERK1/2 [3] = assay: ERK1/2 activation in left ventricle homogenates, CoPP and pNaKtide study; assay type: in vivo, mouse; details: PNx + CoPP 5 mg/kg BW ip, 4 weeks after PNx; p<0.01 vs PNx
Method: as §1

TBARS = assay: Thiobarbituric acid reactive substances (TBARS) in treated PNx mice; assay type: in vivo, mouse; details: PNx + CoPP 5 mg/kg BW ip
HO-1 [4] = assay: HO-1 expression in primary cardiac fibroblasts; assay type: cell-based, mouse; details: 24 h
Method: as §1, §2

PNx mice [5] = assay: Heart weight/body weight ratio, CoPP and pNaKtide study; assay type: in vivo, mouse; details: PNx + CoPP 5 mg/kg BW ip
Method: Nephrectomy Mouse Model: The PNx model included two-step surgeries. […] Step-two surgery was operated 7 days later, in which the right kidney was removed. For sham surgery, the two-step surgeries were performed in the same way as in the PNx group, without ligation of left kidney and removal of right kidney.
CoPP injections were given 5 days prior to, and on the day of, surgery, as well as every 5 days thereafter until sacrificing.

[6] = system: PNx-induced cardiomyopathy, C57BL/6 mice; assay: Transthoracic echocardiography, PNx mice (effects of CoPP and pNaKtide on PNx-induced cardiomyopathy); assay type: in vivo, mouse; details: PNX + CoPP (5 mg/kg BW ip), n = 15, mean ± SE
Method: Experimental designs: Male C57BL/6 10-12 weeks were purchased from Hill Top Laboratories and housed in pathogen free animal facility in designated rooms equipped with cages that supply purified air under a 12 hour light/dark cycle. Food and water were supplied ad libitum. Animal protocol was approved by the Marshall University Institutional Animal Care and Use Committee. The number of animals in each group was determined by Power analysis using the following assumptions derived from a previous study with mice, with variance of 0.2 within the groups, power of 0.80, and alpha error of 0.05. Effects of CoPP and […] on PNx-induced cardiomyopathy: Cobalt protoporphyrin (CoPP, Frontier Scientific, Logan, Utah) was used to induct HO-1 expression and […] was used to block the Na/K-ATPase signaling function. […] Transthoracic Echocardiography: Transthoracic echocardiography was performed 24 hours before sacrifice. […] Mice in supine position were placed on a heating pad to keep the body temperature at 37° C. Body core temperature and ECG for physiological monitoring were obtained and manipulated by using a Visualsonics Mouse Handling Table (11436) and a rectal thermometer. Echocardiographic images were captured using MS400: 18-38 MHz operating frequency MicroScan transducer attached to a Vevo 1100 Imaging System (FUJIFILM VisualSonics Inc.). Warmed echo gel was placed between the probe and shaved chest. B-mode and M-mode images of the heart were obtained from parasternal long axis and short axis. PW Doppler and Color Doppler were obtained from basal short axis. The average values were calculated from at least four consecutive cardiac cycles. Left-ventricular end-diastolic area (EDA), end-systolic area (ESA), as well as main pulmonary artery diameter was measured from B-mode. End-diastolic diameters (EDD), end-systolic diameters (ESD), as well as anterior and posterior wall thickness (AWT & PWT) were captured from M-mode. Isovolumic contraction and relaxation time (IVCT & IVRT), ejection time (ET), as well as pulmonary velocity time integral (VTI) were obtained from PW and color Doppler.

protein carbonylation [7] = assay: Protein carbonylation in left ventricle homogenates, CoPP and pNaKtide study; assay type: in vivo, mouse; details: PNx + CoPP 5 mg/kg BW ip; p<0.01 vs PNx
Method: as §1

protein carbonylation [8] = assay: Protein carbonylation in primary cardiac fibroblasts; assay type: cell-based, mouse
Method: as §1, §2

[9] = system: PNx-induced cardiac fibrosis; assay: Cardiac fibrosis by Sirius Red/Fast Green staining, CoPP and pNaKtide study; assay type: in vivo, mouse; details: PNx + CoPP 5 mg/kg BW ip; p<0.01 vs. PNx
Method: Effects of CoPP and […] on PNx-induced cardiomyopathy: Cobalt protoporphyrin (CoPP, Frontier Scientific, Logan, Utah) was used to induct HO-1 expression and […] was used to block the Na/K-ATPase signaling function. […] Sirius Red/Fast Green staining: Histology staining for collagen fiber was performed on tissues harvested with Sirius Red/Fast Green Collagen Staining solutions (Sigma-Aldrich) according to the manufacturer's protocol. Tissues preparation, fixation, and data analysis were conducted as previously described.

c-Src [10] = assay: c-Src activation (pY418 c-Src/total c-Src) in primary cardiac fibroblasts; assay type: cell-based, mouse
Method: as §1, §2

collagen-1 [11] = assay type: cell-based, mouse
Method: as §1
Experimental design for in vitro experiment: C57BL/6 mouse primary cardiac fibroblast cells (purchased from Cell Biologics, Inc., Chicago, Ill.) were resuspended in complete fibroblast medium with supplements and 10% FBS (Cell Biologics, Inc.). The cultures were maintained at 37° C. in a 5% CO2 incubator and the medium was changed after 48 h and every 2-3 days thereafter. Cardiac fibroblast cells (passage 3-4) were grown until over confluent and were serum-starved (with 1% FBS) overnight before being used for the experiments. Cells were treated with or without TCB (100 nM) to determine procollagen-1 and HO-1 expression (24 h treatment), and c-Src activation and protein carbonylation (1 h treatment).

PNx mice [12] = assay: Renal function: plasma cystatin C, creatinine and BUN, CoPP and pNaKtide study; assay type: in vivo, mouse; details: PNx + CoPP 5 mg/kg BW ip
Method: Measurement of plasma cystatin C, creatinine and blood urea nitrogen (BUN): Mouse cystatin C ELISA kit and mouse creatinine kit were obtained from Crystal Chem. Inc. (Downers Grove, Ill.). Mouse BUN ELISA kit was obtained from MyBioSource Inc (San Diego, Calif.). The measurements were performed following manufacturers' instructions. Each sample was tested in duplicate.

c-Src [13] = assay: c-Src activation in left ventricle homogenates, CoPP and pNaKtide study; assay type: in vivo, mouse; details: PNx + CoPP 5 mg/kg BW ip, 4 weeks after PNx; p<0.01 vs PNx
Method: as §1

HO-1 [14] = assay: HO-1 expression in left ventricle homogenates (western blot), CoPP and pNaKtide study; assay type: in vivo, mouse; details: CoPP 5 mg/kg BW ip
Method: as §1

[15] = CoPP 5 μM, 24 h pre-treatment, TCB 100 nM 1 h
[16] = TCB 100 nM, 1 h, cardiac fibroblasts

## C=CC1=C(C)c2cc3[n-]c(cc4nc(cc5[n-]c(cc1n2)c(C)c5CCC(=O)[O-])C(CCC(=O)[O-])=C4C)c(C)c3C=C.[Co+2].[H+].[H+] [CoPP, cobalt protoporphyrin]
ERK1/2 [1]; [15]
  TCB induced activation of ERK1/2: attenuated
collagen-1 [2]
  PNx-induced increases in cardiac collagen-1 expression: reduced
ERK1/2 [3]
  activation of ERK1/2 in LV homogenates: attenuated
TBARS
  TBARS: consistent with the carbonylation data
HO-1 [4]; CoPP 5 μM, compared with TCB
  HO-1 induction: considerably greater
PNx mice [5]
  increase in heart weight/body weight ratio with PNx: not
[6]
  AWT, anterior wall thickness: 0.65 ± 0.01^$$ mm
  CO, cardiac output: 10.5 ± 0.3 mL/min
  EDA, end diastolic area: 27.2 ± 0.6 mm^2
  EDD, end diastolic dimension: 4.4 ± 0.1 mm
  EF, ejection fraction: 60.0 ± 2.9%
  ESA, end systolic area: 19.0 ± 0.1 mm^2
  ESD, end systolic dimension: 3.2 ± 0.1 mm
  ET, ejection time: 44 ± 1.0 ms
  FS, fractional shortening: 26.8 ± 1.7%
  HR, heart rate: 453 ± 11 beat/min
  IVCT + IVRT, isovolumic contraction time + isovolumic relaxation time: 21 ± 0.7^$$ msec
  LVMI, left ventricle mass index: 4.0 ± 0.1^$$
  PWT, posterior wall thickness: 0.59 ± 0.02^$$ mm
  PaD, pulmonary artery dimension: 1.0 ± 0.02 mm
  PaVTI, pulmonary artery Velocity time integral: 29.9 ± 0.5^$
Protein carbonylation [7]
  PNx-induced protein carbonylation in LV homogenates: reduced
Protein carbonylation [8]; [15]
  TCB induced protein carbonylation: attenuated
[9]
  PNx-induced cardiac fibrosis, Sirius Red/Fast Green staining: significantly attenuated
c-Src [10]; [15]
  TCB induced activation of c-Src: attenuated
collagen-1 [11]; CoPP 5 μM, 24 h, no TCB, C57BL/6 mouse primary cardiac fibroblasts
  collagen-1 expression at baseline: did not significantly affect
collagen-1 [11]; CoPP 5 μM, 24 h pre-treatment, TCB 100 nM 24 h, p<0.01 vs TCB alone
  TCB induced increases in collagen-1 expression: significantly ameliorated
PNx mice [12]
  renal function as assessed by plasma cystatin C, creatinine, and BUN: neither CoPP nor pNaKtide effected significant changes
c-Src [13]
  activation of c-Src in LV homogenates: attenuated
HO-1 [14]
  HO-1 expression in the LV homogenates: induced HO-1 expression most profoundly

## C[C@]12CC[C@H](O)C[C@@]1(O)CC[C@@H]1[C@@H]2CC[C@]2(C)[C@@H](c3ccc(=O)oc3)CC[C@]12O [TCB, telecinobufagin]
ERK1/2 [1]; [16]
  activation of ERK1/2: induced activation
HO-1 [4]; TCB 100 nM
  HO-1 expression: increased
Protein carbonylation [8]; [16]
  protein carbonylation: induced activation
c-Src [10]; [16]
  activation of c-Src: induced activation
collagen-1 [11]; TCB 100 nM, 24 h, vs control, C57BL/6 mouse primary cardiac fibroblasts, p<0.01
  type I collagen (collagen-1) expression: induced increases
